Data as given in US20120058057A1, “Anti-dandruff Agents” (MERCK PATENT GMBH, priority 2009, published 2012).

How the values were obtained:
Malassezia furfur = test: Challenge test (Ph.Eur. 5.1.3), germ count over time, Malassezia furfur; type: cell-based; conditions: for total number of microorganisms (linear scale) / total number of microorganisms (log-scale): 1.0% in water
Description: The challenge testing procedure consists in challenging a non-contaminated antimicrobial product according to the invention with a prescribed inoculum of suitable microorganisms and storing the inoculated product at a prescribed temperature, e.g. room temperature. The number of organisms surviving in the test products is determined at specified intervals of time.
According to the description given in the European pharmacopea (Ph.Eur.5 Ausgabe, Grundwerk 2005, §5.1.3), the challenge tests are done following the procedure given thereafter.
Production of the Inoculum
A fresh stock culture of the specific micro-organsisms is inoculated on the surface of Agar medium B for bacteria and on the surface of Agar medium C for fungi. The bacteria culture will be incubated until sufficient sporulation (18-24h at 30-35° C.) In order to harvest the bacteria, the surface of the Agar media is washed out with a sterile solution containing sodium chloride (9 g/l) and poured into an adequate vessel. The concentration of germs in the suspension will be adjusted with the same solution to a concentration closed to 10^8 micro-organism/ml. Immediately after that action, a sample of this suspension is taken and the germ concentration in CFU/ml will be measured thanks to the method of membran filtration or counting on Agar plate. This value serves determining the value of the inoculum. The suspension must be used immediately.
Method of Determination of Germ Count
In order to determine the number of micro-organisms in the inoculated preparation (containing also the antimicrobial product according to invention), the same Agar medium as for the preparation of the inoculum will be used.
The aqueous suspension/solution containing 1% of the used ionic liquids (=verum) is inoculated with a suspension of the tests micro-organisms (Malassezia furfur) in such a way that a concentration from 10^5 to 10^6 microorganism/ml of the preparation is reached. The inoculated volume should not be above 1% v/v of the overall test solution. The suspension will be mixed in order to get a good homogenisation.
Water alone (=placebo) is treated in the same way. Antifungicidial activity of the verum will be detected once the survival rate of a microorganism for the verum is significantely lower than for the placebo.
The inoculated preparation is stored away from the daylight at 20-25° C. In order to begin the test, 1 g or 1 ml samples from the tests preparation (containing the inoculated micro-organsisms and the antimicrobial product according to the invention) will be taken at different intervals of time (in our case , 0.2 min, 5 min, 30 min, 1 h, 3 h, 6 h, 24 h) and the number of microorganisms will be measured using the Agar plate or the membrane filtration method. It is important to make sure that any remaining antimicrobial activity to be eliminated by dilution, filtration or specific inactivation.

[1] = system: Staphylococcus epidermidis; test: Challenge test (Ph.Eur. 5.1.3), germ count over time, Staphylococcus epidermidis; type: cell-based; conditions: 1.0% in water
[2] = Malassezia furfur, incubation 0 h
[3] = Malassezia furfur, incubation 1 h
[4] = Malassezia furfur, incubation 3 h
[5] = Malassezia furfur, incubation 6 h
[6] = Malassezia furfur, incubation 24 h

CC[N+](C)(C)CCOC [compound 1136, N-ethyl-N,N-dimethyl-2-methoxyethylammonium propionate]
antifungicidial / microbicidal activity against Malassezia furfur (in words) (Malassezia furfur; Malassezia furfur): unique antifungicidial activity
total number of microorganisms (linear scale) (Malassezia furfur; [2]): 45000
total number of microorganisms (log-scale) (Malassezia furfur; [2]): 4.7
total number of microorganisms (linear scale) (Malassezia furfur; [3]): 41000
total number of microorganisms (log-scale) (Malassezia furfur; [3]): 4.6
total number of microorganisms (linear scale) (Malassezia furfur; [4]): 36000
total number of microorganisms (log-scale) (Malassezia furfur; [4]): 4.6
total number of microorganisms (linear scale) (Malassezia furfur; [5]): 33000
total number of microorganisms (log-scale) (Malassezia furfur; [5]): 4.5
total number of microorganisms (linear scale) (Malassezia furfur; [6]): 100
total number of microorganisms (log-scale) (Malassezia furfur; [6]): 2.0
selectivity of growth inhibition: Malassezia furfur versus desired skin microorganisms (e.g. Staphylococcus epidermidis) (Malassezia furfur; in words): selectively inhibit the growth of the undesired microorganism Malassezia furfur
total number of microorganisms (linear scale) ([1]; incubation 0 h): 210000
total number of microorganisms (log-scale) ([1]; incubation 0 h): 5.3
total number of microorganisms (linear scale) ([1]; incubation 1 h): 160000
total number of microorganisms (log-scale) ([1]; incubation 1 h): 5.2
total number of microorganisms (linear scale) ([1]; incubation 3 h): 180000
total number of microorganisms (log-scale) ([1]; incubation 3 h): 5.3
total number of microorganisms (linear scale) ([1]; incubation 6 h): 170000
total number of microorganisms (log-scale) ([1]; incubation 6 h): 5.2
total number of microorganisms (linear scale) ([1]; incubation 24 h): 22000
total number of microorganisms (log-scale) ([1]; incubation 24 h): 4.3
